Data taken from patent publication US12441704B2, “Compounds active towards nuclear receptors” (NUEVOLUTION A/S, priority 2019, dated 2025).
Where two headings read alike, the source gives them in different places.

Tests used:
[1] = biological target: T1, RORγ ligand-binding domain fused to Gal4 (Homo sapiens, UniProt P51449); assay: RORγ Reporter Assay (Gal4); format: cell-based
T1 construct: Gal4 (galactose-responsive transcription factor); expressed in transfected cells; host or cells: HEK293
T1 sequence (P51449 269-508 limits assumed): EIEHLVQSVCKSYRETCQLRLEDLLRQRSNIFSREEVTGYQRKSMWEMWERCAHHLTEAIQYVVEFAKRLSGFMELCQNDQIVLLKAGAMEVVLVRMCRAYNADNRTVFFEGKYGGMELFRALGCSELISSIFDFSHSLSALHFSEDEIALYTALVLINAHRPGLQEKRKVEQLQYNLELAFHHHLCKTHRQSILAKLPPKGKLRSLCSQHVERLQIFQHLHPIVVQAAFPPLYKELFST
Summary of the method: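 Percent inhibition was derived from luciferase RLU versus vehicle mean after 24 h compound incubation (37 °C, 0.1% DMSO). The cells were HEK293, transiently co-expressing a Gal4–RORγ ligand-binding-domain fusion plus a UAS-driven luciferase gene.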

[2] = system: IL-17A secretion in activated PBMCs; assay: IL-17A secretion in activated PBMCs; format: cell-based, human; conditions: PBMC; for IC50: Homo sapiens, 48 h, human PBMCs stimulated with CD3/CD28 Dynabeads for 48 h, absolute IC50; for inhibition at 10 µM: human PBMCs stimulated with CD3/CD28 Dynabeads
Description: Heparin-treated whole blood from healthy human volunteers was supplied from Hospital de Sant Pau (Barcelona) under the approval of the local ethical review board for human studies (Hospital de Sant Pau, Barcelona, Spain). Human peripheral blood mononuclear cells (PBMCs) were isolated from healthy human volunteers by density gradient centrifugation using the Ficoll-Paque (GE Healthcare). […] Cells were seeded in 384-well plate (DiscoverX), at 40,000 cells per well and cultured 2 h at 37° C. and 5% CO2.
Dose-response curves with compounds were prepared using a 5-fold serial dilution (10 concentrations) in 100% DMSO and further diluted 100-fold in culture medium. Compound solutions (5 μL) were added to the plate containing cells (final DMSO concentration of 0.1%) and incubated for 30 min. Then, cells were stimulated with CD3/CD28 Dynabeads (ThermoFisher, at a bead-to-cell ratio of 1:1) for 48 h at 37° C. and 5% CO2.
IL-17A levels in supernatant were determined by immunoassay using hIL17A QBeads (Intellicyt) and by fluorescence analysis in iQue flow cytometer following the manufacturer's instructions. Inhibition of IL-17A secretion was calculated using the following formula: inhibition=100*[1−[(x−mean basal condition)/(mean top condition−mean basal condition)]]. Activated DMSO-treated cells were used as top condition and activated GNE09461 (10 μM)-treated cells as basal condition.

[3] = HEK293 cells co-transfected with RORγ LBD-Gal4 and luciferase reporter, 24 h incubation, absolute EC50, read-out: EC50

Row | SMILES | EC50 [1, 3] | EC50 ([1]; compounds of the present disclosure, value from Table 2 herein, read-out: Gal4 assay EC50) | IC50 [2] | inhibition at 10 µM [2]
1 | NC(=O)CN1CC[C@@H](CNc2ncnc(N(Cc3ccc(C(F)(F)F)cn3)C3CC3)c2F)[C@H](O)C1 (racemic) [Example A7-14, rac-2-((3R,4R)-4-(((6-(cyclopropyl((5-(trifluoromethyl)pyridin-2-yl)methyl)amino)-5-fluoropyrimidin-4-yl)amino)methyl)-3-hydroxypiperidin-1-yl)acetamide] | 0.015 µM |  | 0.028 µM | 
2 | NC(=O)CN1CC[C@@H](CNc2ncnc(N(Cc3ccc(C(F)(F)F)nc3)C3CC3)c2F)[C@H](O)C1 (racemic) [Example A7-28, rac-2-((3R,4R)-4-(((6-(cyclopropyl((6-(trifluoromethyl)pyridin-3-yl)methyl)amino)-5-fluoropyrimidin-4-yl)amino)methyl)-3-hydroxypiperidin-1-yl)acetamide] | 0.0205 µM |  | 0.12 µM | 
3 | NC(=O)CN1CC[C@@H](CNc2ncnc(N(Cc3ccc(C(F)(F)F)cc3)[C@H]3C[C@H](F)C3)c2F)[C@H](O)C1 (racemic) [Example A7-31, rac-2-((3R,4R)-4-(((5-fluoro-6-(((1r,3S)-3-fluorocyclobutyl)(4-(trifluoromethyl)benzyl)amino)pyrimidin-4-yl)amino)methyl)-3-hydroxypiperidin-1-yl)acetamide] | 0.029 µM |  | 0.18 µM | 
4 | NC(=O)CN1CC[C@@H](CNc2ncnc(N(Cc3ccc(C(F)(F)F)cc3)[C@H]3C[C@@H](F)C3)c2F)[C@H](O)C1 (racemic) [Example A7-32, rac-2-((3R,4R)-4-(((5-fluoro-6-(((1s,3R)-3-fluorocyclobutyl)(4-(trifluoromethyl)benzyl)amino)pyrimidin-4-yl)amino)methyl)-3-hydroxypiperidin-1-yl)acetamide] | 0.034 µM |  | 0.22 µM | 
5 | NC(=O)CN1CC[C@@H](CNc2ncnc(N(Cc3ccc(OC(F)F)cc3F)C3CC3)c2F)[C@H](O)C1 (racemic) [Example A7-42, rac-2-((3R,4R)-4-(((6-(cyclopropyl(4-(difluoromethoxy)-2-fluorobenzyl)amino)-5-fluoropyrimidin-4-yl)amino)methyl)-3-hydroxypiperidin-1-yl)acetamide] | 0.018 µM |  | 0.2 µM | 
6 | Cn1cc(-c2ccc(CN(c3ncnc(NC[C@@H]4CCN(CC(N)=O)C[C@H]4O)c3F)C3CC3)c(F)c2)cn1 (racemic) [Example A7-75, rac-2-((3R,4R)-4-(((6-(cyclopropyl(2-fluoro-4-(1-methyl-1H-pyrazol-4-yl)benzyl)amino)-5-fluoropyrimidin-4-yl)amino)methyl)-3-hydroxypiperidin-1-yl)acetamide] | 0.013 µM |  | 0.018 µM | 
7 | CCN(Cc1ccc(-n2cccn2)cc1)c1ncnc(NC[C@@H]2CCN(CC(N)=O)C[C@H]2O)c1F (racemic) [Example A7-77, rac-2-((3R,4R)-4-(((6-((4-(1H-Pyrazol-1-yl)benzyl)(ethyl)amino)-5-fluoropyrimidin-4-yl)amino)methyl)-3-hydroxypiperidin-1-yl)acetamide] | 0.073 µM |  | 0.44 µM | 
8 | CCN(Cc1ccc(C#N)cc1)c1ncnc(NC[C@@H]2CCN(CC(N)=O)C[C@H]2O)c1F (racemic) [Example A7-78, rac-2-((3R,4R)-4-(((6-((4-cyanobenzyl)(ethyl)amino)-5-fluoropyrimidin-4-yl)amino)methyl)-3-hydroxypiperidin-1-yl)acetamide] | 0.065 µM |  |  | 70%
9 | CCN(Cc1ccc(C(F)(F)F)cc1)c1ncnc(NC[C@@H]2CCN([C@H](CO)C(N)=O)C[C@H]2O)c1F (relative stereo) [Example A7-66-1, rel-(R)-2-((3R,4R)-4-(((6-(ethyl(4-(trifluoromethyl)benzyl)amino)-5-fluoropyrimidin-4-yl)amino)methyl)-3-hydroxypiperidin-1-yl)-3-hydroxypropanamide OR rel-(R)-2-((3S,4S)-4-(((6-(ethyl(4-(trifluoromethyl)benzyl)amino)-5-fluoropyrimidin-4-yl)amino)methyl)-3-hydroxypiperidin-1-yl)-3-hydroxypropanamide] | 0.026 µM |  | 0.018 µM | 

Compounds with a lower EC50 [1, 3], results first:

Row | EC50 [1, 3] | EC50 ([1]; compounds of the present disclosure, value from Table 2 herein, read-out: Gal4 assay EC50) | SMILES | IC50 [2] | inhibition at 10 µM [2]
10 | 0.012 µM |  | CCN(Cc1ccc(C(F)(F)F)cc1)c1ncnc(NC[C@H]2CCN(CC(N)=O)C[C@@H]2O)c1F (racemic) [Example A7-21, rac-2-((3R,4R)-4-(((6-(ethyl(4-(trifluoromethyl)benzyl)amino)-5-fluoropyrimidin-4-yl)amino)methyl)-3-hydroxypiperidin-1-yl)acetamide] | 0.08 µM | 
11 | 0.0055 µM |  | CC(F)(F)c1ccc(CN(c2ncnc(NC[C@@H]3CCN(CC(N)=O)C[C@H]3O)c2F)C2CC2)cc1 (racemic) [Example A7-40, rac-2-((3R,4R)-4-(((6-(cyclopropyl(4-(1,1-difluoroethyl)benzyl)amino)-5-fluoropyrimidin-4-yl)amino)methyl)-3-hydroxypiperidin-1-yl)acetamide] | 0.0077 µM | 
12 | 0.011 µM |  | NC(=O)CN1CC[C@@H](CNc2ncnc(N(Cc3ccc(OC(F)F)cc3)C3CC3)c2F)[C@H](O)C1 (racemic) [Example A7-43, rac-2-((3R,4R)-4-(((6-(cyclopropyl(4-(difluoromethoxy)benzyl)amino)-5-fluoropyrimidin-4-yl)amino)methyl)-3-hydroxypiperidin-1-yl)acetamide] | 0.035 µM | 
13 | 0.0053 µM | < 0.1 µM | NC(=O)CN1CC[C@@H](CNc2ncnc(N(Cc3cccc(OC(F)(F)F)c3)C3CC3)c2F)[C@H](O)C1 (racemic) [Example A7-56, rac-2-((3R,4R)-4-(((6-(cyclopropyl(3-(trifluoromethoxy)benzyl)amino)-5-fluoropyrimidin-4-yl)amino)methyl)-3-hydroxypiperidin-1-yl)acetamide] |  | 66%
14 | 0.0018 µM |  | CCN(Cc1ccc(C(F)(F)F)cc1)c1ncnc(NC[C@@H]2CCN(C(C(N)=O)c3ccncc3)C[C@H]2O)c1F (mixture of isomers) [Example A7-62, rac-2-((3R,4R)-4-(((6-(Ethyl(4-(trifluoromethyl)benzyl)amino)-5-fluoropyrimidin-4-yl)amino)methyl)-3-hydroxypiperidin-1-yl)-2-(pyridin-4-yl)acetamide] | 0.0072 µM | 
15 | 0.0034 µM |  | NC(=O)C(c1ccncc1)N1CC[C@@H](CNc2ncnc(N(Cc3ccc(C(F)(F)F)cc3)C3CC3)c2F)[C@H](O)C1 (mixture of isomers) [Example A7-63, rac-2-((3R,4R)-4-(((6-(cyclopropyl(4-(trifluoromethyl)benzyl)amino)-5-fluoropyrimidin-4-yl)amino)methyl)-3-hydroxypiperidin-1-yl)-2-(pyridin-4-yl)acetamide] | 0.0023 µM | 
16 | 0.0058 µM |  | NC(=O)C(CO)N1CC[C@@H](CNc2ncnc(N(Cc3ccc(C(F)(F)F)cc3)C3CC3)c2F)[C@H](O)C1 (mixture of isomers) [Example A7-65, rac-2-((3R,4R)-4-(((6-(cyclopropyl(4-(trifluoromethyl)benzyl)amino)-5-fluoropyrimidin-4-yl)amino)methyl)-3-hydroxypiperidin-1-yl)-3-hydroxypropanamide] | 0.012 µM | 
17 | 0.012 µM |  | Cn1cc(-c2ccc(CN(c3ncnc(NC[C@@H]4CCN(CC(N)=O)C[C@H]4O)c3F)C3CC3)cc2)cn1 (racemic) [Example A7-74, rac-2-((3R,4R)-4-(((6-(cyclopropyl(4-(1-methyl-1H-pyrazol-4-yl)benzyl)amino)-5-fluoropyrimidin-4-yl)amino)methyl)-3-hydroxypiperidin-1-yl)acetamide] | 0.023 µM | 
18 | 0.0066 µM |  | NC(=O)CN1CC[C@@H](CNc2ncnc(N(Cc3ccc(-n4cccn4)cc3F)C3CC3)c2F)[C@H](O)C1 (racemic) [Example A7-76, rac-2-((3R,4R)-4-(((6-(cyclopropyl(2-fluoro-4-(1H-pyrazol-1-yl)benzyl)amino)-5-fluoropyrimidin-4-yl)amino)methyl)-3-hydroxypiperidin-1-yl)acetamide] | 0.092 µM | 
19 | 0.0047 µM |  | CC(C)(C(N)=O)N1CC[C@@H](CNc2ncnc(N(Cc3ccc(C(F)(F)F)cc3)C3CC3)c2F)[C@H](O)C1 (relative stereo) [Example A7-55, rel-2-((3R,4R)-4-(((6-(cyclopropyl(4-(trifluoromethyl)benzyl)amino)-5-fluoropyrimidin-4-yl)amino)methyl)-3-hydroxypiperidin-1-yl)-2-methylpropanamide] | 0.0049 µM | 
